Like-named read-outs stand apart in the source and are kept apart here.
What was measured:
Format in all cases: cell-based
[1] = tested on: Chlorella vulgaris; assay: Action against algae: Chlorella vulgaris; design: key: --: no growth on the agar, 3 ppm have destroyed the algae in 6 hours; details: 3 mg/liter; for Growth on the agar (algae-destroying action): 6 hours exposure, 14 days incubation; for Growth in the medium (growth inhibition): 14 days
Procedure: Cultures of Chlorella vulgaris which had been grown for 14 days in algae nutrient media are diluted in the ratio 1/200 in the algae nutrient medium. Each of the compounds listed in Table 1 is then added in such an amount as to give a final concentration of 3 mg/liter. After incubating for 6 hours, 10 μl of each culture are withdrawn and added dropwise to algae/agar in order to determine the destructive action. After the cultures have incubated for 14 days under illumination (14 hours of light and 10 hours of darkness, alternately), the growth in the algae medium (determination of growth inhibition) and on the algae/agar (determination of algae-destroying action) is assessed visually.

[2] = tested on: Endomyces geotrichum; assay: Minimum inhibitory concentration against fungi, agar incorporation test, strain Q; details: malt extract/agar
Procedure: (§1) The invention is carried out using the known agar incorporation test in the following fungi:
(§2) in a malt extract/agar (Merck). Inhibition is effected by adding sufficient of each of the various compounds to give final concentrations in the agar of 2, 5, 10, 50 and 100 mg/liter. The concentrations (mg/liters) required to inhibit the growth of the fungi (starting from traces of fungi added dropwise) are illustrated in Table 3.

[3] = tested on: Alternaria alternata; assay: Minimum inhibitory concentration against fungi, agar incorporation test, strain N; details: malt extract/agar
Procedure: as §1, §2

[4] = tested on: Penicillium funiculosum; assay: Minimum inhibitory concentration against fungi, agar incorporation test, strain M; details: malt extract/agar
Procedure: as §1
(M) Penicillium funiculosum
as §2

[5] = tested on: Serratia marcencens; assay: Minimum inhibitory concentration against bacteria, strain D; details: 24 hours at 30° C.; tested at 100 and 300 mg/liter
Procedure: (§3) Overnight cultures, grown in Caso peptone bouillon (Merck) of the various strains of bacteria: (A) Proteus vulgaris, (B) Pseudomonas aeruginosa, (C) Enterobacter aerogenes, (D) Serratia marcencens, (E) Alcaligenes denitrificans and (F) Bacillus subtilis are each diluted in a ratio of 1/1000 in saline solution. Sufficient of the suspensions is put into Caso peptone bouillon to dilute the bacteria again in the ratio of 1/1000. Each of the compounds listed in Table 1 is then added in amounts of 100 and 300 mg/liter. After being incubated for 24 hours at 30° C. in a shaking waterbath, the turbidity of the samples is evaluated.

[6] = tested on: Chaetomium globosum; assay: Minimum inhibitory concentration against fungi, agar incorporation test, strain S; details: malt extract/agar
Procedure: as §1, §2

[7] = tested on: Cladosporium cladosporioides; assay: Minimum inhibitory concentration against fungi, agar incorporation test, strain O; details: malt extract/agar
Procedure: as §1
(O) Cladosporium cladosporioides
as §2

[8] = tested on: Pseudomonas aeruginosa; assay: Minimum inhibitory concentration against bacteria, strain B; details: 24 hours at 30° C.; tested at 100 and 300 mg/liter
Procedure: as §3

[9] = tested on: Aureobasidium pullulans; assay: Minimum inhibitory concentration against fungi, agar incorporation test, strain R; details: malt extract/agar
Procedure: as §1
(R) Aureobasidium pullulans
as §2

[10] = tested on: Aspergillus niger; assay: Minimum inhibitory concentration against fungi, agar incorporation test, strain K; details: malt extract/agar
Procedure: as §1, §2

[11] = tested on: Enterobacter aerogenes; assay: Minimum inhibitory concentration against bacteria, strain C; details: 24 hours at 30° C.; tested at 100 and 300 mg/liter
Procedure: as §3

[12] = tested on: Alcaligenes denitrificans; assay: Minimum inhibitory concentration against bacteria, strain E; details: 24 hours at 30° C.; tested at 100 and 300 mg/liter
Procedure: as §3

[13] = tested on: Candida albicans; assay: Minimum inhibitory concentration against fungi, agar incorporation test, strain P; details: malt extract/agar
Procedure: as §1, §2

[14] = tested on: Aspergillus phoenicis; assay: Minimum inhibitory concentration against fungi, agar incorporation test, strain L; details: malt extract/agar
Procedure: as §1
(L) Aspergillus phoenicis
as §2

[15] = tested on: Proteus vulgaris; assay: Minimum inhibitory concentration against bacteria, strain A; details: 24 hours at 30° C.; tested at 100 and 300 mg/liter
Procedure: as §3

[16] = tested on: Bacillus subtilis; assay: Minimum inhibitory concentration against bacteria, strain F; details: 24 hours at 30° C.; tested at 100 and 300 mg/liter
Procedure: as §3

[17] = tested on: mixed culture of bacteria; design: key: +: growth, no destruction; (+): growth less than that of control (>10 colonies), slight destruction; (-): slight growth (1-10 colonies); -: no growth, destruction
[18] = 5 mg/l, culture diluted 1/1000 in Tyrode
[19] = 5 mg/l, culture diluted 1/10000 in Tyrode
[20] = 10 mg/l, culture diluted 1/1000 in Tyrode
[21] = 10 mg/l, culture diluted 1/10000 in Tyrode
[22] = 30 mg/l, culture diluted 1/1000 in Tyrode
[23] = 30 mg/l, culture diluted 1/10000 in Tyrode
[24] = 60 mg/l, culture diluted 1/1000 in Tyrode
[25] = 60 mg/l, culture diluted 1/10000 in Tyrode
[26] = 100 mg/l, culture diluted 1/1000 in Tyrode
[27] = 100 mg/l, culture diluted 1/10000 in Tyrode

C14 H29 (CH3)2NCH2CHOHCH2 OH / Tributyldichloro [Example 21]
Growth on the agar (algae-destroying action) [1]: --
Growth in the medium (growth inhibition) [1]: --
MIC against fungi, strain Q [2]: ≤ 5 µg/mL
MIC against fungi, strain N [3]: ≤ 5 µg/mL
MIC against fungi, strain M [4]: ≤ 5 µg/mL
MIC against bacteria, strain D [5]: 100 µg/mL
MIC against fungi, strain S [6]: ≤ 5 µg/mL
MIC against fungi, strain O [7]: ≤ 5 µg/mL
MIC against bacteria, strain B [8]: 100 µg/mL
MIC against fungi, strain R [9]: ≤ 5 µg/mL
MIC against fungi, strain K [10]: ≤ 5 µg/mL
MIC against bacteria, strain C [11]: 100 µg/mL
MIC against bacteria, strain E [12]: 100 µg/mL
MIC against fungi, strain P [13]: ≤ 5 µg/mL
MIC against fungi, strain L [14]: ≤ 5 µg/mL
MIC against bacteria, strain A [15]: 100 µg/mL
MIC against bacteria, strain F [16]: 100 µg/mL

CCCCCCCCCCCCCCCC[N+](C)(C)C.CCC[CH2][Sn-]([Cl])([Cl])([CH2]CCC)[CH2]CCC [Example 17, (CH3)3 NC16 H33 / Tributyldichloro]
Growth on the agar (algae-destroying action) [1]: --
Growth in the medium (growth inhibition) [1]: --
MIC against fungi, strain Q [2]: 10 µg/mL
MIC against fungi, strain N [3]: 2 µg/mL
MIC against fungi, strain M [4]: 5 µg/mL
MIC against fungi, strain S [6]: 2 µg/mL
MIC against fungi, strain O [7]: 2 µg/mL
MIC against fungi, strain R [9]: 2 µg/mL
MIC against fungi, strain K [10]: 2 µg/mL
MIC against fungi, strain P [13]: 5 µg/mL
MIC against fungi, strain L [14]: 2 µg/mL
Growth (destruction of a mixed culture of bacteria) [17, 18]: +
Growth (destruction of a mixed culture of bacteria) [17, 19]: (+) (growth less than that of control (>10 colonies), slight destruction)
Growth (destruction of a mixed culture of bacteria) [17, 20]: +
Growth (destruction of a mixed culture of bacteria) [17, 21]: (+) (growth less than that of control (>10 colonies), slight destruction)
Growth (destruction of a mixed culture of bacteria) [17, 22]: (+) (growth less than that of control (>10 colonies), slight destruction)
Growth (destruction of a mixed culture of bacteria) [17, 23]: -
Growth (destruction of a mixed culture of bacteria) [17, 24]: -
Growth (destruction of a mixed culture of bacteria) [17, 25]: -
Growth (destruction of a mixed culture of bacteria) [17, 26]: -
Growth (destruction of a mixed culture of bacteria) [17, 27]: -

CCCCCCCCCCCCCCCCCC[N+](C)(C)C.CCC[CH2][Sn-]([Cl])([Cl])([CH2]CCC)[CH2]CCC [Example 18, (CH3)3 NC18 H37 / Tributyldichloro]
Growth on the agar (algae-destroying action) [1]: --
Growth in the medium (growth inhibition) [1]: --
MIC against fungi, strain Q [2]: 10 µg/mL
MIC against fungi, strain N [3]: 2 µg/mL
MIC against fungi, strain M [4]: 5 µg/mL
MIC against fungi, strain S [6]: 2 µg/mL
MIC against fungi, strain O [7]: 2 µg/mL
MIC against fungi, strain R [9]: 2 µg/mL
MIC against fungi, strain K [10]: 2 µg/mL
MIC against fungi, strain P [13]: 5 µg/mL
MIC against fungi, strain L [14]: 2 µg/mL
Growth (destruction of a mixed culture of bacteria) [17, 18]: +
Growth (destruction of a mixed culture of bacteria) [17, 19]: (+) (growth less than that of control (>10 colonies), slight destruction)
Growth (destruction of a mixed culture of bacteria) [17, 20]: +
Growth (destruction of a mixed culture of bacteria) [17, 21]: (-) (slight growth (1-10 colonies))
Growth (destruction of a mixed culture of bacteria) [17, 22]: (+) (growth less than that of control (>10 colonies), slight destruction)
Growth (destruction of a mixed culture of bacteria) [17, 23]: -
Growth (destruction of a mixed culture of bacteria) [17, 24]: (+) (growth less than that of control (>10 colonies), slight destruction)
Growth (destruction of a mixed culture of bacteria) [17, 25]: -
Growth (destruction of a mixed culture of bacteria) [17, 26]: (-) (slight growth (1-10 colonies))
Growth (destruction of a mixed culture of bacteria) [17, 27]: -

CCCCCCCCCCCCC(=O)NCCC[N+](C)(C)O.CCC[CH2][Sn-]([Cl])([Cl])([CH2]CCC)[CH2]CCC [Example 29, (C12 H25 CO)NH(CH2)3 N(OH)(CH3)2 / Tributyldichloro]
Growth on the agar (algae-destroying action) [1]: --
Growth in the medium (growth inhibition) [1]: --
MIC against fungi, strain Q [2]: 10 µg/mL
MIC against fungi, strain N [3]: ≤ 5 µg/mL
MIC against fungi, strain M [4]: 10 µg/mL
MIC against bacteria, strain D [5]: > 300 µg/mL
MIC against fungi, strain S [6]: ≤ 5 µg/mL
MIC against fungi, strain O [7]: ≤ 5 µg/mL
MIC against bacteria, strain B [8]: 100 µg/mL
MIC against fungi, strain R [9]: ≤ 5 µg/mL
MIC against fungi, strain K [10]: ≤ 5 µg/mL
MIC against bacteria, strain C [11]: > 300 µg/mL
MIC against bacteria, strain E [12]: 300 µg/mL
MIC against fungi, strain P [13]: ≤ 5 µg/mL
MIC against fungi, strain L [14]: ≤ 5 µg/mL
MIC against bacteria, strain A [15]: 100 µg/mL
MIC against bacteria, strain F [16]: 100 µg/mL

CCCCCCCCCCCC[N+](C)(C)C.CCC[CH2][Sn-]([Cl])([Cl])([CH2]CCC)[CH2]CCC [Example 16, (CH3)3 NC12 H25 / Tributyldichloro]
Growth on the agar (algae-destroying action) [1]: --
Growth in the medium (growth inhibition) [1]: --
MIC against fungi, strain Q [2]: 50 µg/mL
MIC against fungi, strain N [3]: 2 µg/mL
MIC against fungi, strain M [4]: 5 µg/mL
MIC against bacteria, strain D [5]: 100 µg/mL
MIC against fungi, strain S [6]: 2 µg/mL
MIC against fungi, strain O [7]: 2 µg/mL
MIC against bacteria, strain B [8]: 100 µg/mL
MIC against fungi, strain R [9]: 2 µg/mL
MIC against fungi, strain K [10]: 2 µg/mL
MIC against bacteria, strain C [11]: 100 µg/mL
MIC against bacteria, strain E [12]: 100 µg/mL
MIC against fungi, strain P [13]: 5 µg/mL
MIC against fungi, strain L [14]: 2 µg/mL
MIC against bacteria, strain A [15]: 100 µg/mL
MIC against bacteria, strain F [16]: 100 µg/mL

CCCCCCCCCCCC[N+](C)(C)O.CCC[CH2][Sn-]([Cl])([Cl])([CH2]CCC)[CH2]CCC [Example 14, (CH3)2 N(OH)C12 H25 / Tributyldichloro]
Growth on the agar (algae-destroying action) [1]: --
Growth in the medium (growth inhibition) [1]: --
MIC against fungi, strain Q [2]: 10 µg/mL
MIC against fungi, strain N [3]: 2 µg/mL
MIC against fungi, strain M [4]: 5 µg/mL
MIC against bacteria, strain D [5]: 300 µg/mL
MIC against fungi, strain S [6]: 2 µg/mL
MIC against fungi, strain O [7]: 2 µg/mL
MIC against bacteria, strain B [8]: 100 µg/mL
MIC against fungi, strain R [9]: 2 µg/mL
MIC against fungi, strain K [10]: 2 µg/mL
MIC against bacteria, strain C [11]: > 300 µg/mL
MIC against bacteria, strain E [12]: 300 µg/mL
MIC against fungi, strain P [13]: 5 µg/mL
MIC against fungi, strain L [14]: 2 µg/mL
MIC against bacteria, strain A [15]: 100 µg/mL
MIC against bacteria, strain F [16]: 100 µg/mL

CCC[CH2][Sn-]([Cl])([Cl])([CH2]CCC)[CH2]CCC.CCC[CH2][Sn-]([Cl])([Cl])([CH2]CCC)[CH2]CCC.C[N+](C)(C)CCCCCC[N+](C)(C)C [Example 23, (CH3)3 N(CH2)6 N(CH3)3 / Tributyldichloro]
Growth on the agar (algae-destroying action) [1]: --
Growth in the medium (growth inhibition) [1]: --
MIC against fungi, strain Q [2]: 10 µg/mL
MIC against fungi, strain N [3]: ≤ 5 µg/mL
MIC against fungi, strain M [4]: 10 µg/mL
MIC against bacteria, strain D [5]: > 300 µg/mL
MIC against fungi, strain S [6]: ≤ 5 µg/mL
MIC against fungi, strain O [7]: ≤ 5 µg/mL
MIC against bacteria, strain B [8]: 100 µg/mL
MIC against fungi, strain R [9]: ≤ 5 µg/mL
MIC against fungi, strain K [10]: 10 µg/mL
MIC against bacteria, strain C [11]: 300 µg/mL
MIC against bacteria, strain E [12]: 300 µg/mL
MIC against fungi, strain P [13]: ≤ 5 µg/mL
MIC against fungi, strain L [14]: 10 µg/mL
MIC against bacteria, strain A [15]: 100 µg/mL
MIC against bacteria, strain F [16]: 100 µg/mL
